Reference: ChEMBL document CHEMBL1140084, “Discovery and evaluation of 4-(2-(4-chloro-1H-pyrazol-1-yl)ethylamino)-3-(6-(1-(3-fluoropropyl)piperidin-4-yl)-4-methyl-1H-benzo[d]imidazol-2-yl)pyridin-2(1H)-one (BMS-695735), an orally efficacious inhibitor of insulin-like growth factor-1 receptor kinase with broad spectrum in vivo antitumor …” (J Med Chem, 2008)
In brackets after ≈: the same amount, converted by molar mass. Activity calls are given as the source filed them. The calls are words filed in the database; no cut-off is given here.

Legend:
[1] = molecular target: T1, Nuclear receptor subfamily 1 group I member 2 (Homo sapiens, UniProt O75469); experiment: Induction of PXR transactivation
T1 sequence (O75469 whole entry): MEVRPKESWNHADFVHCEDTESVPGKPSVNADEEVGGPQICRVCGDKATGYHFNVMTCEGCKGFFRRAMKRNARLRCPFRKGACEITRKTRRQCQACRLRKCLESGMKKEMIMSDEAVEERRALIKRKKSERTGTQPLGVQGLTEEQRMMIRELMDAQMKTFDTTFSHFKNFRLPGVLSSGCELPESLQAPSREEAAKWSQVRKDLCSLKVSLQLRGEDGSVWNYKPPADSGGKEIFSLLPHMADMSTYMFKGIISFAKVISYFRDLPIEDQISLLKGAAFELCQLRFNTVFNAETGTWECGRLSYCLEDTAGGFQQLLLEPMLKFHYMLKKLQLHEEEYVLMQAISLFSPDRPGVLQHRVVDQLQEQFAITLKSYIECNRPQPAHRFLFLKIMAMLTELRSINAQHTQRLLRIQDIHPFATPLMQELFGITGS

[2] = Antiproliferative activity against transgenic mouse SAL cells overexpressing human IGF1R assessed as [3H]thymidine incorporation after 72 hrs
[3] = Volume of distribution at steady state in dog at 2 mg/kg, iv and 10 mg/kg, po; type: ADME, organism-based, Canis lupus familiaris; details: in vivo, read-out: Vdss
[4] = molecular target: cAMP-dependent protein kinase catalytic subunit beta (Homo sapiens, UniProt P22694); experiment: Inhibition of PKA-B
[5] = Oral bioavailability in rat at 10 mg/kg; type: ADME, organism-based; details: in vivo
[6] = Total clearance in monkey at 2 mg/kg, iv and 10 mg/kg, po; type: ADME, organism-based, Macaca mulatta; details: rhesus monkey, in vivo
[7] = Oral bioavailability in mouse at 50 mg/kg; type: ADME, organism-based; details: in vivo
[8] = molecular target: Epidermal growth factor receptor (Homo sapiens, UniProt P00533); experiment: Inhibition of GST-tagged HER1
[9] = Half life in mouse at 5 mg/kg, iv and 50 mg/kg, po; type: ADME, organism-based; details: in vivo
Mus musculus [10] = experiment: Induction of glucose homeostasis in mouse assessed as glucose elevation at 100 mg/kg after glucose challenge by OGTT; type: functional, organism-based; parameters: dose 100 mg/kg
[11] = Total clearance in mouse at 5 mg/kg, iv and 50 mg/kg, po; type: ADME, organism-based; details: in vivo
Cytochrome P450 2D6 = Cytochrome P450 2D6 (Homo sapiens, UniProt P10635); experiment: Inhibition of human recombinant CYP2D6 in human liver microsomes; type: ADME, Microsome
[12] = Oral bioavailability in monkey at 10 mg/kg; type: ADME, organism-based, Macaca mulatta; details: rhesus monkey, in vivo
[13] = Volume of distribution at steady state in mouse at 5 mg/kg, iv and 50 mg/kg, po; type: ADME, organism-based; details: in vivo, read-out: Vdss
[14] = Aqueous solubility of the compound; type: physicochemical; details: buffer
[15] = Total clearance in rat at 2 mg/kg, iv and 10 mg/kg, po; type: ADME, organism-based; details: in vivo
[16] = molecular target: MAP kinase-activated protein kinase 2 (Homo sapiens, UniProt P49137); experiment: Inhibition of MK2
[17] = molecular target: Fibroblast growth factor receptor 1 (Homo sapiens, UniProt P11362); experiment: Inhibition of human recombinant FGFR1
[18] = Half life in rat at 2 mg/kg, iv and 10 mg/kg, po; type: ADME, organism-based; details: in vivo
[19] = Inhibition of His-tagged GSK3
[20] = Volume of distribution at steady state in monkey at 2 mg/kg, iv and 10 mg/kg, po; type: ADME, organism-based, Macaca mulatta; details: rhesus monkey, in vivo, read-out: Vdss
[21] = AUC in mouse at 20 mg/kg after 4 hrs; type: ADME, organism-based; parameters: time < 4 hr, dose 20 mg/kg; details: plasma
[22] = Half life in monkey at 2 mg/kg, iv and 10 mg/kg, po; type: ADME, organism-based, Macaca mulatta; details: rhesus monkey, in vivo
[23] = Half life in dog at 2 mg/kg, iv and 10 mg/kg, po; type: ADME, organism-based, Canis lupus familiaris; details: in vivo
[24] = Cmax in rat at 10 mg/kg, po; type: ADME, organism-based; parameters: dose 10 mg/kg, route oral; details: in vivo
Focal adhesion kinase 1 = Focal adhesion kinase 1 (Homo sapiens, UniProt Q05397)
[25] = Apparent permeability across human CaCo2 cells; type: ADME, cell-based; details: Caco-2
[26] = Cmax in dog at 10 mg/kg, po; type: ADME, organism-based, Canis lupus familiaris; parameters: dose 10 mg/kg, route oral; details: in vivo
[27] = Volume of distribution at steady state in rat at 2 mg/kg, iv and 10 mg/kg, po; type: ADME, organism-based; details: in vivo, read-out: Vdss
[28] = molecular target: Hepatocyte growth factor receptor (Homo sapiens, UniProt P08581); experiment: Inhibition of GST-tagged Met
Cytochrome P450 2C9 = Cytochrome P450 2C9 (Homo sapiens, UniProt P11712); experiment: Inhibition of human recombinant CYP2C9 in human liver microsomes; type: ADME, Microsome
[29] = molecular target: Tyrosine-protein kinase ITK/TSK (Homo sapiens, UniProt Q08881); experiment: Inhibition of GST-tagged Emt
[30] = Total clearance in dog at 2 mg/kg, iv and 10 mg/kg, po; type: ADME, organism-based, Canis lupus familiaris; details: in vivo
Hepatocyte [31] = experiment: Cytotoxicity against human hepatocytes; type: cell-based
[32] = molecular target: Mitogen-activated protein kinase 14 (Homo sapiens, UniProt Q16539); experiment: Inhibition of p38alpha
[33] = molecular target: Protein kinase C delta type (Homo sapiens, UniProt Q05655); experiment: Inhibition of PKCdelta
[34] = Oral bioavailability in dog at 10 mg/kg; type: ADME, organism-based, Canis lupus familiaris; details: in vivo
[35] = Protein binding in mouse plasma at 10 uM by equilibrium dialysis; type: ADME, cell-free; details: read-out: PPB (converted)
[36] = Antitumor activity against human JJN3 cell xenografted nu/nu athymic mouse at 100 mg/kg, po bid for 21 days; type: functional; details: JJN-3, 504 h, read-out: TGI
[37] = Antitumor activity against human Geo cell xenografted nu/nu athymic mouse at 100 mg/kg, po bid for 21 days; type: functional; details: 504 h, read-out: TGI
Phosphodiesterase 4 = Phosphodiesterase 4 (Homo sapiens, UniProt P27815+Q08499+Q07343+Q08493); experiment: Inhibition of human PDE4 in U937 cells; type: cell-based; details: u-937
Cytochrome P450 1A2 = Cytochrome P450 1A2 (Homo sapiens, UniProt P05177); experiment: Inhibition of human recombinant CYP1A2 in human liver microsomes; type: ADME, Microsome
[38] = molecular target: Insulin-like growth factor 1 receptor (Homo sapiens, UniProt P08069); experiment: Inhibition of human IGF1R expressed in transgenic mouse IGFSal cells; type: cell-based
Mus musculus [39] = experiment: Induction of glucose homeostasis in mouse assessed as glucose elevation at 50 to 100 mg/kg prior to glucose challenge by OGTT; type: functional, organism-based
[40] = Cmax in monkey at 10 mg/kg, po; type: ADME, organism-based, Macaca mulatta; parameters: dose 10 mg/kg, route oral; details: rhesus monkey, in vivo
[41] = Inhibition of IRK
[42] = molecular target: Receptor tyrosine-protein kinase erbB-2 (Homo sapiens, UniProt P04626); experiment: Inhibition of GST-tagged HER2
Mus musculus [43] = experiment: Induction of glucose homeostasis in mouse assessed as glucose elevation at 50 mg/kg after glucose challenge by OGTT; type: functional, organism-based; parameters: dose 50 mg/kg
[44] = Antitumor activity against mouse IGFSal cell xenografted nu/nu athymic mouse at 50 mg/kg, po bid for 5 days; type: functional; details: 120 h, read-out: TGI
Cytochrome P450 3A4 = Cytochrome P450 3A4 (Homo sapiens, UniProt P08684); experiment: Inhibition of human recombinant CYP3A4 in human liver microsomes using BFC as a substrate
COLO 205 = experiment: Antitumor activity against human Colo205 cell xenografted nu/nu athymic mouse at 100 mg/kg, po bid for 21 days; type: functional; details: COLO 205, 504 h, read-out: TGI
[45] = Inhibition of GST-tagged IKK
Cytochrome P450 2C19 = Cytochrome P450 2C19 (Homo sapiens, UniProt P33261); experiment: Inhibition of human recombinant CYP2C19 in human liver microsomes; type: ADME, Microsome
[46] = molecular target: Vascular endothelial growth factor receptor 2 (Homo sapiens, UniProt P35968); experiment: Inhibition of GST-tagged KDR
[47] = molecular target: Protein kinase C alpha type (Homo sapiens, UniProt P17252); experiment: Inhibition of PKCalpha
[48] = Cmax in mouse at 50 mg/kg, po; type: ADME, organism-based; parameters: dose 50 mg/kg, route oral; details: in vivo
[49] = molecular target: RAC-alpha serine/threonine-protein kinase (Homo sapiens, UniProt P31749); experiment: Inhibition of AKT
[50] = Protein binding in human plasma at 10 uM; type: ADME, cell-free; details: read-out: PPB
[51] = molecular target: PXR (nuclear receptor subfamily 1 group I member 2) (Homo sapiens, UniProt O75469); experiment: Induction of PXR transactivation at 10 uM relative to rifampicin; details: read-out: Activity
Hepatocyte [52] = experiment: Increase in CYP3A4 mRNA expression level in human hepatocytes; type: functional, cell-based

Chain of Cytochrome P450 3A4 (P08684 whole entry): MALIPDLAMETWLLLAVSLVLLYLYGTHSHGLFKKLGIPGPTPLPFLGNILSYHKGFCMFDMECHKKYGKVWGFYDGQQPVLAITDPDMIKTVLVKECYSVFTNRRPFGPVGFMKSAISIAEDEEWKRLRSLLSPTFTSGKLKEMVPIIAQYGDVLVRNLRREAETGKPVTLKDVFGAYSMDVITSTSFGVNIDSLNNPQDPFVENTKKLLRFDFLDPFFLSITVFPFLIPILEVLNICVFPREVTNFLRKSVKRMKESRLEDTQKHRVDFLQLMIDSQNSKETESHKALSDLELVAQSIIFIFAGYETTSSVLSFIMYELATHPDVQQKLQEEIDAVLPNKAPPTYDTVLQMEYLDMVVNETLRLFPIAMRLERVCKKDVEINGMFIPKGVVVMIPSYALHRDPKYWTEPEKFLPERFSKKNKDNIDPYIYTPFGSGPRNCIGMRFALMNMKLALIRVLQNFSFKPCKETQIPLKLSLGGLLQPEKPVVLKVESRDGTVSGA
Chain of Tyrosine-protein kinase ITK/TSK (Q08881 whole entry): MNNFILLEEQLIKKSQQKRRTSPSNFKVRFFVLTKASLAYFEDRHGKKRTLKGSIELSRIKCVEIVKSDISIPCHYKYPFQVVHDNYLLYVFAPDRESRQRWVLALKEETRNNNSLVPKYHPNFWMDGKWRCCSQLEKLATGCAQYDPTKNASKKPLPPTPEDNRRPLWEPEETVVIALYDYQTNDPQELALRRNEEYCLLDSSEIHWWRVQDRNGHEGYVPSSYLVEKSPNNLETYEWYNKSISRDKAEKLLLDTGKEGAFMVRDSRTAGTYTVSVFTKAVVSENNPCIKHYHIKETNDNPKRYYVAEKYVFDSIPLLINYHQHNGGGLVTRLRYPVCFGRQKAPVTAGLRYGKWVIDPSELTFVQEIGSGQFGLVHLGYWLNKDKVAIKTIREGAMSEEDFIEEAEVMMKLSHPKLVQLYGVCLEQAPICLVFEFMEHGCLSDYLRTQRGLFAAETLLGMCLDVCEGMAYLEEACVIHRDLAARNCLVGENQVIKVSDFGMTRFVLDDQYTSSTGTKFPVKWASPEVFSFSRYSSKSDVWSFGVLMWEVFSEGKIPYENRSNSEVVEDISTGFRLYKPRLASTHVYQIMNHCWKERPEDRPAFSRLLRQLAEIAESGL
Chain of MAP kinase-activated protein kinase 2 (P49137 whole entry): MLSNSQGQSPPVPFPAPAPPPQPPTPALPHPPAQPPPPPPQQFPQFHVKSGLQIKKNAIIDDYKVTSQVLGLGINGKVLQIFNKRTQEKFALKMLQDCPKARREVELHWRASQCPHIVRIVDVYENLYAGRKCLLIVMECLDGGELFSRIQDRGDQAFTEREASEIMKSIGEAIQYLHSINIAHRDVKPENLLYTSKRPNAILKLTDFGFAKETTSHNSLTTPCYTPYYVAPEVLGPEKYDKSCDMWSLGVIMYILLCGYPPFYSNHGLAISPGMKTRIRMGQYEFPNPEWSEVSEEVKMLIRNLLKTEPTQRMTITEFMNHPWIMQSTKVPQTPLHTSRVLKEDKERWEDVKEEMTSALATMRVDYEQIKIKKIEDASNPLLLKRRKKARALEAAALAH
Chain of Focal adhesion kinase 1 (Q05397 whole entry): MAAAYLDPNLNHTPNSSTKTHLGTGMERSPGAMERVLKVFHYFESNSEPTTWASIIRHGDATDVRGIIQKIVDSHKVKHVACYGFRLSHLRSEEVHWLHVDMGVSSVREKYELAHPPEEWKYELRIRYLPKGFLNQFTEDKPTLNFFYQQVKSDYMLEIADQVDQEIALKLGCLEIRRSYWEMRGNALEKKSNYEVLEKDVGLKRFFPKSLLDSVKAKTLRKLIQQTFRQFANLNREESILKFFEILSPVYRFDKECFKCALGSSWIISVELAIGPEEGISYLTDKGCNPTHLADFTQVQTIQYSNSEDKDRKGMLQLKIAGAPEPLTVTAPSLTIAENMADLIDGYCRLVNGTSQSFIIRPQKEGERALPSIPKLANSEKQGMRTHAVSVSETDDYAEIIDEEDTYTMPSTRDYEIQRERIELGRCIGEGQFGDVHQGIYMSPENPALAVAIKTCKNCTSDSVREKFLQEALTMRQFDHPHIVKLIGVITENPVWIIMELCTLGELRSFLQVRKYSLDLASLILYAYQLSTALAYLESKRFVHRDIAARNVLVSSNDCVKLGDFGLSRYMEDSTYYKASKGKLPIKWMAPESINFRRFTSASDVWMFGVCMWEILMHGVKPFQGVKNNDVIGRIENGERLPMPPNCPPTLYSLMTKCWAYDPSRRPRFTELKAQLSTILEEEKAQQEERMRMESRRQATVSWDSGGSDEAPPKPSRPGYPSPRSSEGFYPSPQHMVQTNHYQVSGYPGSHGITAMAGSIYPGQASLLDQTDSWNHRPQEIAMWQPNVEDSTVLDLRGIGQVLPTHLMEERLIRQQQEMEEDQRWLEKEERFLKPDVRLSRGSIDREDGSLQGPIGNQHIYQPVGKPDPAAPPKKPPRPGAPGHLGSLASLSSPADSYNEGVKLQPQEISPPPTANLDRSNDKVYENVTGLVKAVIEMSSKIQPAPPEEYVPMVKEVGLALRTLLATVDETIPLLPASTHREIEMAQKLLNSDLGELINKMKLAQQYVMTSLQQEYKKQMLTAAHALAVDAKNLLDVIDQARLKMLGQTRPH
Chain of Cytochrome P450 2D6 (P10635 whole entry): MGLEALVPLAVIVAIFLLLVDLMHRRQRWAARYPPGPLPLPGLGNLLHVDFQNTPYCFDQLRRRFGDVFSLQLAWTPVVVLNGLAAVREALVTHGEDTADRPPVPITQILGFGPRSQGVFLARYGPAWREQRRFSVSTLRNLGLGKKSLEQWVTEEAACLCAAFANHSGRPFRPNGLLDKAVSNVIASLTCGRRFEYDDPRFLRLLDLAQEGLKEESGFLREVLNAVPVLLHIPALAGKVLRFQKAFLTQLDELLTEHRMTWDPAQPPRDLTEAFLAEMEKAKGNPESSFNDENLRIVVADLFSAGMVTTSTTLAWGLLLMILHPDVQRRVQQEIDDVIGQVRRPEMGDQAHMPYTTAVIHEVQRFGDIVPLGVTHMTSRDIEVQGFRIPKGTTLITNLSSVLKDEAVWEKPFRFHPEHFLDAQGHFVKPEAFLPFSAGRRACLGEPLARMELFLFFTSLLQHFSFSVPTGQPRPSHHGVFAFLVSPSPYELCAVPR
Chain of Cytochrome P450 1A2 (P05177 whole entry): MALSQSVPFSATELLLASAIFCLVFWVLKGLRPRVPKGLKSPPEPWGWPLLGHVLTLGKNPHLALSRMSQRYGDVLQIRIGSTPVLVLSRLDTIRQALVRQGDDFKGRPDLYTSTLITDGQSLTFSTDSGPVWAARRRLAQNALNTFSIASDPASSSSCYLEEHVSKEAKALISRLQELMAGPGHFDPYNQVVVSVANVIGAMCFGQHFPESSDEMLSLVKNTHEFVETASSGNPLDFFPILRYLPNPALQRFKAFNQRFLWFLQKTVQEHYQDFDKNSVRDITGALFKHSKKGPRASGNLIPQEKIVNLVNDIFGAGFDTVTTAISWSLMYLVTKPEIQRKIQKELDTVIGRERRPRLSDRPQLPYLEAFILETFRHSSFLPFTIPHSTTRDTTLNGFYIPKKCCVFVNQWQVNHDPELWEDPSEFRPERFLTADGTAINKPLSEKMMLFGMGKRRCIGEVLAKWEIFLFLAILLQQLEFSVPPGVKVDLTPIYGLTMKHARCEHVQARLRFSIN
Chain of Cytochrome P450 2C9 (P11712 whole entry): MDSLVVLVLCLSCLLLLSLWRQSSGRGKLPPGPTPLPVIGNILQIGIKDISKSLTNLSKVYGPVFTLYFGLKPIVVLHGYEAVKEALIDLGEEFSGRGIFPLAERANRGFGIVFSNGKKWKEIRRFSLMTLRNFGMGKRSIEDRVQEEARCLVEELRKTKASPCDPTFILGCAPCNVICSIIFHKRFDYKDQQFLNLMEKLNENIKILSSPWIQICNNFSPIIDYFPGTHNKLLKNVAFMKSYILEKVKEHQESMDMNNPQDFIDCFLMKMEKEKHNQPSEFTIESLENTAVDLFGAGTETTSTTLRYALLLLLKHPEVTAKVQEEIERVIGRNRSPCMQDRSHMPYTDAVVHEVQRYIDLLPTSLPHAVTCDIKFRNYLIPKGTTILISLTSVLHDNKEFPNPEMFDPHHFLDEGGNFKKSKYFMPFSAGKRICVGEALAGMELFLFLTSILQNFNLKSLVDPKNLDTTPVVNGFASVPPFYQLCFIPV

For Cc1cc(C2CCN(CCCF)CC2)cc2[nH]c(-c3c(NC[C@@H](O)c4cccc(Cl)c4)cc[nH]c3=O)nc12, the EC20 [1] was > 50 µM and the IC50 [2] was 0.076 µM.
Molecule Cc1cc(C2CCN(CCCF)CC2)cc2[nH]c(-c3c(NCCn4cc(Cl)cn4)cc[nH]c3=O)nc12 has a Vd [3] of 21 L/kg, an IC50 [4] of 37.7 µM and a bioavailability [5] of 23%. The clearance [6] was 27 mL/min/kg, the bioavailability [7] was > 100% and the IC50 [8] was 21 µM. The half-life [9] was 2.3 h, the Activity (Mus musculus [10]) was “inactive” and the clearance [11] was 159 mL/min/kg. The IC50 (Cytochrome P450 2D6) was > 40 µM, the bioavailability [12] was 48% and the Vd [13] was 18.2 L/kg. The solubility [14] was 137 µg/mL (≈ 268 µM), the clearance [15] was 76 mL/min/kg and the IC50 [16] was > 50 µM. The IC50 [17] was < 5 µM, the half-life [18] was 4 h and the IC50 [19] was 8.56 µM. For the same molecule, the Vd [20] was 17 L/kg, the AUC at 4 h [21] was 3.7 µM·h and the half-life [22] was 7.3 h. The EC20 [1] was > 50 µM, the half-life [23] was 10.5 h and the Cmax [24] was 200 nM. For the same molecule, the IC50 (Focal adhesion kinase 1) was 0.165 µM, the Papp [25] was 10.9 ×10⁻⁶ cm/s and the Cmax [26] was 270 nM. The Vd [27] was 20 L/kg, the IC50 [28] was 3.99 µM and the IC50 (Cytochrome P450 2C9) was > 40 µM. The IC50 [29] was 0.37 µM, the clearance [30] was 23 mL/min/kg and the Activity (Hepatocyte [31]) was “Non-toxic”. It also gave an IC50 [32] of 31 µM, an IC50 [33] of 20.3 µM and a bioavailability [34] of 35%. It also gave a fraction unbound at 10 µM [35] of 0.131, an inhibition in vivo at 100 mg/kg [36] of 80% and an inhibition in vivo at 100 mg/kg [37] of 73%. For the same molecule, the IC50 (Phosphodiesterase 4) was 4 µM, the IC50 (Cytochrome P450 1A2) was > 40 µM and the IC50 [2] was 0.185 µM. For the same molecule, the IC50 [38] was 0.034 µM, the Activity (Mus musculus [39]) was “inactive” and the Cmax [40] was 400 nM. The IC50 [41] was 0.072 µM, the IC50 [42] was 6 µM and the Activity (Mus musculus [43]) was “inactive”. For the same molecule, the inhibition in vivo at 50 mg/kg [44] was 81%, the IC50 (Cytochrome P450 3A4) was 26 µM and the inhibition in vivo at 100 mg/kg (COLO 205) was 93%. For the same molecule, the IC50 [45] was > 100 µM, the IC50 (Cytochrome P450 2C19) was 34 µM and the IC50 [46] was 0.369 µM. The IC50 [47] was 11 µM, the Cmax [48] was 2300 nM and the IC50 [49] was 48.4 µM.
For Cc1cc(C2CCN(C)CC2)cc2[nH]c(-c3c(NC[C@@H](O)c4cccc(Cl)c4)cc[nH]c3=O)nc12, the AUC at 4 h [21] was 1.2 µM·h, the EC20 [1] was > 50 µM and the IC50 [2] was 0.085 µM. It also gave an IC50 (Cytochrome P450 3A4) of 14 µM.
For COCCN1CCC(c2cc(C)c3nc(-c4c(NC[C@@H](O)c5ccc(OC)c(Cl)c5)cc[nH]c4=O)[nH]c3c2)CC1, the AUC at 4 h [21] was 0.49 µM·h, the EC20 [1] was > 50 µM and the IC50 [2] was 0.013 µM. The IC50 (Cytochrome P450 3A4) was 7.7 µM.
In the case of Cc1cc(N2CCOCC2)cc2[nH]c(-c3c(NC[C@@H](O)c4cccc(Cl)c4)cc[nH]c3=O)nc12, the fraction unbound at 10 µM [50] is reported as < 0.002, the activity at 10 µM [51] is reported as 125% and the Activity (Hepatocyte [52]) is reported as “Dose-dependent effect”. The AUC at 4 h [21] was 50 µM·h, the EC20 [1] was 1.1 µM and the Papp [25] was 1.8 ×10⁻⁶ cm/s. For the same molecule, the fraction unbound at 10 µM [35] was < 0.001 and the IC50 [2] was 0.11 µM.
